Test results published in US9840478B2 (MERCK SHARP & DOHME CORP., priority 2013, dated 2017).

System: HIV-1 (H9IIIB strain)
Assay: Cell-based HIV infection assay using a reporter (Cell-Based), MT4-GFP cells
Conditions: Human immunodeficiency virus 1, MT4-GFP cells infected with HIV-1 H9IIIB; 50% normal human serum; mean of at least two independent experiments; read-out: Cell-based IP
Summary of the method: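 IC50 from 4-parameter dose-response of % viral growth inhibition, using the 48 h/24 h infected-cell ratio scaled between DMSO and a protease/integrase/NNRTI triple-drug control. Assay used MT4 cells with HIV-LTR-GFP reporter, pre-infected 24 h with HIV-1 H9IIIB, in 50% normal human serum.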

SMILES	IC50 [nM]
CS(=O)(=O)N1[C@@H](CCc2c(F)cccc2NC(=O)[C@@H](N)[C@@H](c2ccc(F)cc2)c2cc(F)cc(F)c2)CNC[C@@H]1C1CC1 [Example 205, (βS)-N-(2-{2-[(2S,6S)-6-cyclopropyl-1-(methylsulfonyl)piperazin-2-yl]ethyl}-3-fluorophenyl)-β-(3,5-difluorophenyl)-4-fluoro-L-phenylalaninamide]	22
COC(=O)N[C@H](C(=O)Nc1cncc(F)c1CC[C@H]1CNC[C@@H](C)N1S(=O)(=O)C1CC1)[C@@H](c1ccc(F)cc1)c1cc(F)cc(F)c1 [Example 211, (βS)-N-(4-{2-[(2S,6R)-1-(cyclopropylsulfonyl)-6-methylpiperazin-2-yl]ethyl}-5-fluoropyridin-3-yl)-β-(3,5-difluorophenyl)-4-fluoro-Nα-(methoxycarbonyl)-L-phenylalaninamide]	16
N[C@H](C(=O)Nc1cccc(F)c1CC[C@H]1CNCCN1S(=O)(=O)c1ccccc1)[C@@H](c1ccc(Cl)cc1)c1cccc(F)c1 [Example 39, (βS)-4-chloro-β-(3-fluorophenyl)-N-(3-fluoro-2-{2-[(2S)-1-(phenylsulfonyl)piperazin-2-yl]ethyl}phenyl)-L-phenylalaninamide]	12
COC(=O)N[C@H](C(=O)Nc1cncc(F)c1CC[C@H]1CNCCN1S(=O)(=O)N1CCCC1)[C@@H](c1ccc(F)cc1)c1cc(F)cc(F)c1 [Example 84, (βS)-3,5-difluoro-β-(4-fluorophenyl)-N-(5-fluoro-4-{2-[(2S)-1-(pyrroldin-1-ylsulfonyl)piperazin-2-yl]ethyl}pyridin-3-yl)-Nα-(methoxycarbonyl)-L-phenylalaninamide]	8.4
COC(=O)N[C@H](C(=O)Nc1cccc(F)c1CC[C@H]1CNC[C@H](C)N1S(=O)(=O)c1ccc(OC)cc1)[C@H](c1cccc(F)c1)c1cccc(Cl)c1 [Example 163, (βR)-3-chloro-N-[3-fluoro-2-(2-{(2S,6S)-1-[(4-methoxyphenyl)sulfonyl]-6-methylpiperazin-2-yl}ethyl)phenyl]-β-(3-fluorophenyl)-Nα-(methoxycarbonyl)-L-phenylalaninamide]	20
COC(=O)N[C@H](C(=O)Nc1cccc(F)c1CC[C@H]1CNC[C@H](C)N1S(=O)(=O)c1ccccc1)C1(c2cc(F)cc(F)c2)CCOCC1 [Example 286, methyl {(1S)-1-[4-(3,5-difluorophenyl)tetrahydro-2H-pyran-4-yl]-2-[(3-fluoro-2-{2-[(2S,6S)-6-methyl-1-(phenylsulfonyl)piperazin-2-yl]ethyl}phenyl)amino]-2-oxoethyl}carbamate]	33
COc1ccc(S(=O)(=O)N2[C@@H](CCc3c(F)cccc3NC(=O)[C@@H](N)[C@@H](Cc3ccc(F)cc3)c3ccc(Cl)cc3)CNC[C@@H]2C)cc1 [Example 186, (βS)-4-chloro-β-(4-fluorobenzyl)-N-[3-fluoro-2-(2-{(2S,6S)-1-[(4-methoxyphenyl)sulfonyl]-6-methylpiperazin-2-yl}ethyl)phenyl]-L-phenylalaninamide]	86
COC(=O)N[C@H](C(=O)Nc1cncc(F)c1CC[C@H]1CNC[C@@H](C)N1S(=O)(=O)c1ccccc1)[C@@H](c1ccc(Cl)cc1)C(C)C [Example 17, (βR)-4-chloro-N-(5-fluoro-4-{2-[(2S,6R)-6-methyl-1-(phenylsulfonyl)piperazin-2-yl]ethyl}pyridin-3-yl)-Nα-(methoxycarbonyl)-β-(1-methylethyl)-L-phenylalaninamide]	4.4
COC(=O)N[C@H](C(=O)Nc1cccc(F)c1CC[C@H]1CNC[C@@H](C)N1S(=O)(=O)c1ccc(OC(F)(F)F)cc1)[C@@H](c1ccc(F)cc1)c1cc(F)cc(F)c1 [Example 248, (βS)-β-(3,5-difluorophenyl)-4-fluoro-N-(3-fluoro-2-{2-[(2S,6R)-6-methyl-1-{[4-(trifluoromethoxy)phenyl]sulfonyl}piperazin-2-yl]ethyl}phenyl)-Nα-(methoxycarbonyl)-L-phenylalaninamide]	45
C[C@H]1CNC[C@H](CCc2c(F)cccc2NC(=O)[C@@H](N)[C@@H](c2ccc(F)cc2)c2cc(F)cc(F)c2)N1S(=O)(=O)c1ccc(OC(F)(F)F)cc1 [Example 214, (βS)-β-(3,5-difluorophenyl)-4-fluoro-N-(3-fluoro-2-{2-[(2S,6S)-6-methyl-1-{[4-(trifluoromethoxy)phenyl]sulfonyl}piperazin-2-yl]ethyl}phenyl)-L-phenylalaninamide]	44
C[C@H]1CNC[C@H](CCc2c(F)cccc2NC(=O)[C@@H](N)[C@@H](c2ccc(Cl)cc2)C2CCOCC2)N1S(=O)(=O)c1ccccc1 [Example 131, (βR)-4-chloro-N-(3-fluoro-2-{2-[(2S,6S)-6-methyl-1-(phenylsulfonyl)piperazin-2-yl]ethyl}phenyl)-β-(tetrahydro-2H-pyran-4-yl)-L-phenylalaninamide]	17
C[C@H]1CNC[C@H](CCc2c(F)cncc2NC(=O)[C@@H](N)[C@@H](c2ccc(Cl)cc2)C2CCOCC2)N1S(=O)(=O)c1ccc(Cl)cc1 [Example 273, (βR)-4-chloro-N-[4-(2-{(2S,6S)-1-[(4-chlorophenyl)sulfonyl]-6-methylpiperazin-2-yl}ethyl)-5-fluoropyridin-3-yl]-β-(tetrahydro-2H-pyran-4-yl)-L-phenylalaninamide]	11
COc1ccc([C@H](c2ccc(Cl)cc2)[C@H](N)C(=O)Nc2cccc(F)c2CC[C@H]2CNCC(C)N2S(=O)(=O)C2CC2)cn1 (stereo in doubt) [Example 152, (βS)-4-chloro-N-(2-{2-[(2S,6S)-1-(cyclopropylsulfonyl)-6-methylpiperazin-2-yl]ethyl}-3-fluorophenyl)-β-(6-methoxypyridin-3-yl)-L-phenylalaninamide]	39
Cc1ccc(S(=O)(=O)N2CCNC[C@@H]2CCc2c(F)cccc2NC(=O)[C@@H](N)[C@@H](c2ccc(F)cc2)c2cc(F)cc(F)c2)o1 [Example 373, (2S,3S)-2-amino-3-(3,5-difluorophenyl)-N-(3-fluoro-2-(2-((S)-1-((5-methylfuran-2-yl)sulfonyl)piperazin-2-yl)ethyl)phenyl)-3-(4-fluorophenyl)propanamide]	4.2
COC(=O)N[C@H](C(=O)Nc1cccc(F)c1CC[C@H]1CNC[C@@H](C)N1S(=O)(=O)c1ccccc1)C1(c2ccc(F)c(F)c2)CCOCC1 [Example 290, methyl {(1S)-1-[4-(3,4-difluorophenyl)tetrahydro-2H-pyran-4-yl]-2-[(3-fluoro-2-{2-[(2S,6R)-6-methyl-1-(phenylsulfonyl)piperazin-2-yl]ethyl}phenyl)amino]-2-oxoethyl}carbamate]	15
COC(=O)N[C@H](C(=O)Nc1cccc(F)c1CC[C@H]1CNC[C@H](C)N1S(=O)(=O)c1ccc(OC)cc1)[C@@H](c1ccc(Cl)cc1)C(C)C [Example 125, (βR)-4-chloro-N-[3-fluoro-2-(2-{(2S,6S)-1-[(4-methoxyphenyl)sulfonyl]-6-methylpiperazin-2-yl}ethyl)phenyl]-Nα-(methoxycarbonyl)-β-(1-methylethyl)-L-phenylalaninamide]	18
COC(=O)N[C@H](C(=O)N[C@@H]1CCC[C@H]1CC[C@H]1CNCCN1S(=O)(=O)c1ccccc1)C(c1ccc(F)cc1)c1ccc(F)cc1 [Example 351, Methyl ((S)-1,1-bis(4-fluorophenyl)-3-oxo-3-(((1R,2S)-2-(2-((S)-1-(phenylsulfonyl)piperazin-2-yl)ethyl)cyclopentyl)amino)propan-2-yl)carbamate]	360
CC(=O)Nc1nc(C)c(S(=O)(=O)N2CCNC[C@@H]2CCc2c(F)cncc2NC(=O)C[C@@H](c2ccc(F)cc2)c2cc(F)cc(F)c2)s1 [Example 318, (3S)-N-(4-{2-[(2S)-1-{[2-(acetylamino)-4-methyl-1,3-thiazol-5-yl]sulfonyl}piperazin-2-yl]ethyl}-5-fluoropyridin-3-yl)-3-(3,5-difluorophenyl)-3-(4-fluorophenyl)propanamide]	97
COC(=O)N[C@H](C(=O)Nc1cccc(F)c1CC[C@H]1CNC[C@H](C)N1S(=O)(=O)c1ccccc1)[C@H](c1cncc(F)c1)c1cccc(Cl)c1 [Example 253, (βS)-3-chloro-N-(3-fluoro-2-{2-[(2S,6S)-6-methyl-1-(phenylsulfonyl)piperazin-2-yl]ethyl}phenyl)-β-(5-fluoropyridin-3-yl)-Nα-(methoxycarbonyl)-L-phenylalaninamide]	24
CC[C@H]1CNC[C@H](CCc2c(F)cccc2NC(=O)[C@@H](NC(=O)OC)[C@@H](c2ccc(Cl)cc2)C2CCOCC2)N1S(C)(=O)=O [Example 225, (βR)-4-chloro-N-(2-{2-[(2S,6S)-6-ethyl-1-(methylsulfonyl)piperazin-2-yl]ethyl}-3-fluorophenyl)-Nα-(methoxycarbonyl)-β-(tetrahydro-2H-pyran-4-yl)-L-phenylalaninamide]	23
C[C@@H]1CNC[C@H](CCc2c(F)cncc2NC(=O)[C@@H](N)[C@@H](c2ccc(F)cc2)c2cc(F)cc(F)c2)N1S(=O)(=O)c1ccc(OC(F)(F)F)cc1 [Example 227, (βS)-β-(3,5-difluorophenyl)-4-fluoro-N-(5-fluoro-4-{2-[(2S,6R)-6-methyl-1-{[4-(trifluoromethoxy)phenyl]sulfonyl}piperazin-2-yl]ethyl}pyridin-3-yl)-L-phenylalaninamide]	23

Same assay, conditions: MT4-GFP cells infected with HIV-1 H9IIIB; 50% normal human serum; mean of at least two independent experiments; read-out: Cell-based IP

SMILES	IC50 [nM]
COCC1CNC[C@H](CCc2c(F)cccc2NC(=O)[C@@H](N)[C@@H](c2ccc(Cl)cc2)C2CCOCC2)N1S(C)(=O)=O (stereo partly drawn) [Example 260, (βR)-4-chloro-N-(3-fluoro-2-{2-[(2S)-6-(methoxymethyl)-1-(methylsulfonyl)piperazin-2-yl]ethyl}phenyl)-β-(tetrahydro-2H-pyran-4-yl)-L-phenylalaninamide]	140
COC(=O)NC(C(=O)NC1CC1CC[C@H]1CNCCN1S(=O)(=O)c1ccccc1)C(c1ccc(F)cc1)c1ccc(F)cc1 (single isomer, unassigned) [Example 362]	76
